Source: US7244738B2, “Arylamine-substituted quinazolinone compounds useful as alpha 1A/B adrenergic receptor antagonists” (Roche Palo Alto LLC, priority 2003, dated 2007)
Where a name gives a salt, the structure may show the parent alone.

melting point [°C] | Compound
70.8 to 78.8 | COc1cc2[nH]c(N(C)Cc3cccc(C(C)N4CCC4)n3)nc(=O)c2c(OC)c1OC (stereo not shown) [Example 278, 2-{[6-(1-Aztidin-1-yl-ethyl)-pyridin-2-ylmethyl]-methyl-amino}-5,6,7-trimethoxy-1H-quinazolin-4-one]
195.9 to 197.4 | COc1cc2[nH]c(N(C)Cc3ccc(N4CCCC4=O)cc3)nc(=O)c2c(OC)c1OC [Example 12, 5,6,7-Trimethoxy-2-{methyl-[4-(2-oxo-pyrrolidin-1-yl)-benzyl]-amino}-1H-quinazolin-4-one]
190.3 to 191.1 | COc1cc2[nH]c(N(C)Cc3cccc(Nc4ncccn4)c3)nc(=O)c2c(OC)c1OC [Example 213, 5,6,7-Trimethoxy-2-{methyl-[3-(pyrimidin-2-ylamino)-benzyl]-amino}-1H-quinaozlin-4-one]
142.5 to 142.9 | CNCc1cccc(CNc2nc(=O)c3c(C)c(OC)c(OC)cc3[nH]2)c1 [Example 69, 6,7-Dimethoxy-5-methyl-2-(3-methylaminomethyl-benzylamino)-1H-quinazolin-4-one]
264.6 to 266.5 | CCNCCOc1cccc(CN(C)c2nc(=O)c3c(C)c(OC)c(OC)cc3[nH]2)c1 [Example 165, 2-{[3-(2-Ethylamino-ethoxy)-benzyl]-methyl-amino}-6,7-dimethoxy-5-methyl-1H-quinazolin-4-one]
240 to 242 | COc1cc2[nH]c(N(C)Cc3cccc(N4C=NC(C)(C)C4)c3)nc(=O)c2cc1OC [Example 90, 2-{[3-(4,4-Dimethyl-4,5-dihydro-imidazol-1-yl)-benzyl]-methyl-amino}-6,7-dimethoxy-1H-quinazolin-4-one]
125 to 131 | COc1cc2[nH]c(N(C)Cc3cccc(NCc4ncc[nH]4)c3)nc(=O)c2c(OC)c1OC [Example 220, 2-({3-[(1H-Imidazol-2-ylmethyl)-amino]-benzyl}-methylamino)-5,6,7-trimethoxy-1H-quinazolin-4-one]
163.9 to 164.5 | COc1cc2[nH]c(N(C)Cc3cccc(CN4CCCC4)c3)nc(=O)c2c(C)c1OC [Example 122, 6,7-Dimethoxy-5-methyl-2-[methyl-(3-pyrrolidin-1-ylmethyl-benzyl)-amino]-1H-quinazolin-4-one]
178.9 to 179.9 | COCCNc1cccc(CN(C)c2nc(=O)c3c(OC)c(OC)c(OC)cc3[nH]2)c1 [Example G-19, 5,6,7-Trimethoxy-2-{[3-(2-methoxy-ethylamino)-benzyl]-methyl-amino}-1H-quinazolin-4-one]
139.7 to 146.6 | COc1ccc(CN(C)c2nc(=O)c3c(OC)c(OC)c(OC)cc3[nH]2)cc1OCC(CO)CO (as salt: HCl) [Example 3, 2-{[3-(3-Hydroxy-2-hydroxymethyl-propoxy)-4-methoxy-benzyl]-methyl-amino}-5,6,7-trimethoxy-1H-quinazolin-4-one]
166.5 to 172.9 | COc1cc2[nH]c(N(C)Cc3cccc(NC(C)=O)c3)nc(=O)c2c(OC)c1OC (as salt: HCl) [Example 174, N-(3-{[Methyl-(5,6,7-trimethoxy-4-oxo-1,4-dihydro-quinazolin-2-yl)-amino]-methyl}-phenyl)-acetamide]
135 to 138.1 | COc1cc2[nH]c(N(C)CCc3cccc(/N=C(\C)N(C)C)c3)nc(=O)c2cc1OC [Example 91, N′-(3-{2-[(6,7-Dimethoxy-4-oxo-1,4-dihydro-quinazolin-2-yl)-methyl-amino]-ethyl}-phenyl)-N,N-dimethyl-acetamidine]
179 to 182.1 | COc1cc2[nH]c(N(C)Cc3cccc(-c4nccn4C)c3)nc(=O)c2c(C)c1OC [Example 249, 6,7-Dimethoxy-5-methyl-2-{methyl-[3-(1-methyl-`1H-imidazol-2-yl)-benzyl]-amino}-1H-quinazolin-4-one]
128.9 to 133.4 | COc1cc2[nH]c(N(C)Cc3cccc(Nc4nccc(Cl)n4)c3)nc(=O)c2c(OC)c1OC [Example 215, 2-{[3-(4-Chloro-pyrimidin-2-ylamino)-benzyl]-methyl-amino}-5,6,7-trimethoxy-1H-quinazolin-4-one]
124.9 to 127.6 | CNCc1cccc(CN(C)c2nc(=O)c3c(OC)c(OC)c(OC)cc3[nH]2)c1 [Example 111, 5,6,7-Trimethoxy-2-[methyl-(3-methylaminomethyl-benzyl)-amino]-1H-quinazolin-4-one]
207.5 to 209.9 | COc1cc2[nH]c(N(C)Cc3cccc(N4C[C@@H](O)CC4=O)c3)nc(=O)c2c(OC)c1OC [Example 24, 2-{[3-((S)-4-Hydroxy-2-oxo-pyrrolidin-1-yl)-benzyl]-methyl-amino}-5,6,7-trimethoxy-1H-quinazolin-4-one]
160 to 162.1 | COc1cc2[nH]c(N(C)Cc3cccc(CN4CCOCC4)c3)nc(=O)c2c(OC)c1OC [Example 110, 5,6,7-Trimethoxy-2-[methyl-(3-morpholin-4-ylmethyl-benzyl)-amino]-1H-quinazolin-4-one]

melting point [°C] | Compound
230.8 to 232.5 | COc1cc2[nH]c(N(C)Cc3cccc(N4C[C@@H](O)CC4=O)c3)nc(=O)c2c(C)c1OC [Example 27, 2-{[3-((S)-4-Hydroxy-2-oxo-pyrrolidin-1-yl)-benzyl]-methyl-amino}-6,7-dimethoxy-5-methyl-1H-quinazolin-4-one]
144.8 to 146.2 | COc1ccc(CN(C)c2nc(=O)c3c(C)c(OC)c(OC)cc3[nH]2)cc1OCCN(C)CCO [Example 16, 2-[(3-{2-[(2-Hydroxy-ethyl)-methyl-amino]-ethoxy}-4-methoxy-benzyl)-methyl-amino]-6,7-dimethoxy-5-methyl-1H-quinazolin-4-one]
231.5 to 232.9 | COc1cc2[nH]c(N(C)Cc3cccc(S(C)(=O)=O)c3)nc(=O)c2c(OC)c1OC [Example 129, 2-[(3-Methanesulfonyl-benzyl)-methyl-amino]-5,6,7-trimethoxy-1H-quinazolin-4-one]
177 to 180 | COc1cc2[nH]c(N(C)Cc3cccc(N4CCN=C4C)c3)nc(=O)c2c(C)c1OC [Example H-6, 6,7-Dimethoxy-5-methyl-2-{methyl-[3-(2-methyl-4,5-dihydro-imidazol-1-yl)-benzyl]-amino}-1H-quinazolin-4-one]
130 to 133.8 | COc1cc2[nH]c(N(C)Cc3cccc(C(C)N(C)S(C)(=O)=O)c3)nc(=O)c2c(C)c1OC (stereo not shown) [Example 26, N-[1-(3-{[(6,7-Dimethoxy-5-methyl-4-oxo-1,4-dihydro-quinazolin-2-yl)-methyl-amino]-methyl}-phenyl)-ethyl]-N-methyl-methanesulfonamide]
174.4 to 174.8 | COc1cc2[nH]c(N(C)Cc3cccc(/N=C(\C)N(C)C)c3)nc(=O)c2c(C)c1OC [Example 167, N′-(3-{[(6,7-Dimethoxy-5-methyl-4-oxo-1,4-dihydro-quinazolin-2-yl)-methyl-amino]-methyl}-phenyl)-N,N-dimethyl-acetamide]
172.4 to 173.2 | CCN(C)CCc1ccc(CN(C)c2nc(=O)c3c(C)c(OC)c(OC)cc3[nH]2)cc1 [Example 28, 2-({4-[2-(Ethyl-methyl-amino)-ethyl]-benzyl}-methyl-amino)-6,7-dimethoxy-5-methyl-1H-quinazolin-4-one]
170.3 to 172.3 | COc1cc2[nH]c(N(C)Cc3cccc(N(C)S(=O)(=O)N(C)C)c3)nc(=O)c2c(OC)c1OC [Example 172, N,N,N′-Trimethyl-N′-(3-{[methyl-(5,6,7-trimethoxy-4-oxo-1,4-dihydro-quinazolin-2-yl)-amino]-methyl}-phenyl)-sulfamide]
243.3 to 245.1 | CNC(=O)c1cccc(CN(C)c2nc(=O)c3c(C)c(OC)c(OC)cc3[nH]2)c1 [Example 136, 3-{[(6,7-Dimethoxy-5-methyl-44-oxo-1,4-dihydro-quinazolin-2-yl)-methyl-amino]-methyl}-N-methyl-benzamide]
198.5 to 199.5 | COc1cc2[nH]c(N(C)Cc3ccc(OCCO)cc3)nc(=O)c2c(C)c1OC [Example 31, 2-{[4-(2-Hydroxy-ethoxy)-benzyl]-methylamino}-6,7-dimethoxy-5-methyl-1H-quinazolin-4-one]
195.9 to 197.9 | CNc1cccc(CN(C)c2nc(=O)c3c(C)c(OC)c(OC)cc3[nH]2)c1 [Example 102, 6,7-Dimethoxy-5-methyl-2-[methyl-(3-methylamino-benzyl)-amino]-1H-quinazolin-4-one]
144.8 to 145.9 | COCCOc1cccc(CN(C)c2nc(=O)c3c(OC)c(OC)c(OC)cc3[nH]2)c1 [Example F-11, 5,6,7-Trimethoxy-2-{[3-(2-methoxy-ethoxy)-benzyl]-methyl-amino}-1H-quinazolin-4-one]
215 to 217 | COc1cc2[nH]c(N(C)Cc3cccc(NS(C)(=O)=O)c3)nc(=O)c2c(C(C)C)c1OC [Example G-2, N-(3-{[(5-Isopropyl-6,7-dimethoxy-4-oxo-1,4-dihydro-quinazolin-2-yl)-methyl-amino]-methyl}-phenyl)-methanesulfonamide]
226 to 229.5 | COc1cc2[nH]c(N(C)Cc3cccc(N4CCOC4=O)c3)nc(=O)c2c(OC)c1OC [Example 255, 5,6,7-ZTrimethoxy-2-{methyl[3-(2-oxo-oxazolidin-3-yl)-benzyl]-amino}-1H-quinazolin-4-one]
253 to 254.9 | COc1cc2[nH]c(N(C)Cc3cccc(C4=NCCN4CCO)c3)nc(=O)c2c(C)c1OC [Example 244, 2-({3-[1-(2-Hydroxy-ethyl)-4,5-dihydro-1H-imidazol-2-yl]-benzyl}-methyl-amino)-6,7-dimethoxy-5-methyl-1H-quinazolin-4-one]
209.3 to 210.8 | COc1cc2[nH]c(N(C)Cc3cccc(N4C(=O)CN(C)C4=O)c3)nc(=O)c2c(C)c1OC [Example 60, 3-(3-{[(6,7-Dimethoxy-5-methyl-4-oxo-1,4-dihydro-quinazolin-2-yl)-methyl-amino]-methyl-}-phenyl)-1-methyl-imidazolidine-2,4-dione]
130 to 133 | COc1cc2[nH]c(N(C)Cc3cccc(/N=C4/CCCN4C)c3)nc(=O)c2c(OC)c1OC [Example 205, 5,6,7-Trimethoxy-2-(methyl-{3-[1-methyl-pyrrolidin-(2Z)-ylideneamino]-benzyl}-amino)-1H-quinazolin-4-one]
